{"source": "patent US6914045B2", "about": "“Glycopeptide antibiotics” (Wyeth Holdings Corporation, priority 2001, dated 2005)", "assay_in_all_cases": "in vitro antibacterial evaluation, MIC by broth dilution", "format_in_all_cases": "cell-based", "key": {"[1]": {"tested_on": "Enterococcus sp.", "settings": "broth dilution, 18 hours at 35° C.; for MIC Enterococcus faecalis (ATCC 29212): strain ATCC 29212; for MIC Enterococcus faecium (GC 2243): strain GC 2243; for MIC Enterococcus faecalis (GC 4552): strain GC 4552; for MIC Enterococcus faecalis (GC 4553): strain GC 4553; for MIC Enterococcus faecalis (GC 4554): strain GC 4554; for MIC Enterococcus faecium (GC 4556): strain GC 4556; for MIC Enterococcus faecium (GC 4557): strain GC 4557; for MIC Enterococcus avium (GC 4558): strain GC 4558; for MIC Enterococcus faecalis (GC 6189): strain GC 6189", "how_it_was_run": "(§1)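 Following National Committee for Clinical Laboratory Standards recommendations (M7-A2), susceptibility was measured by dilution in Muller-Hinton II […]. Bacteria were seeded at 5×10^5 CFU/mL against compound concentrations from 64 down to 0.06 μg/mL.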"}, "[2]": {"tested_on": "Staphylococcus sp.", "settings": "broth dilution, 18 hours at 35° C.; for MIC Staphylococcus aureus (GC 1131): strain GC 1131", "how_it_was_run": "as §1"}, "[3]": {"tested_on": "Streptococcus sp.", "settings": "broth dilution, 18 hours at 35° C.", "how_it_was_run": "as §1"}, "[4]": {"tested_on": "Escherichia coli", "how_it_was_run": "as §1"}}, "data": [{"compound": "CC(c1ccccc1)C1NC(=O)CNC(=O)C(CO)NC(=O)C(C(O)C2CNC(=N)N2C2OC(CO)C(O)C(O)C2O)NC(=O)C(C(O)C2CNC(=N)N2)NC(=O)C(Cc2ccc(OC3OC(CO)C(OC4OC5COC(c6ccc(S(C)(=O)=O)cc6)OC5C(O)C4O)C(O)C3O)cc2)NC1=O", "note": "(centres unmarked) [Example 157]", "values": [{"measurement": "MIC Enterococcus faecalis (GC 2242)", "setting": "[1]; Enterococcus faecalis (GC 2242)", "value": 64, "unit": "mg/L"}, {"measurement": "MIC Enterococcus faecalis (GC 2691)", "setting": "[1]; Enterococcus faecalis (GC 2691)", "value": ">64", "unit": "mg/L"}, {"measurement": "MIC Enterococcus faecalis (GC 3059)", "setting": "[1]; Enterococcus faecalis (GC 3059)", "value": ">64", "unit": "mg/L"}, {"measurement": "MIC Enterococcus faecalis (ATCC 29212)", "setting": "[1]; inoculum 5×10^5 CFU/mL", "value": ">64", "unit": "mg/L"}, {"measurement": "MIC Enterococcus faecium (GC 2243)", "setting": "[1]; inoculum 5×10^5 CFU/mL", "value": 64, "unit": "mg/L"}, {"measurement": "MIC Enterococcus faecalis (GC 4552)", "setting": "[1]; inoculum 5×10^5 CFU/mL", "value": ">64", "unit": "mg/L"}, {"measurement": "MIC Enterococcus faecalis (GC 4553)", "setting": "[1]; inoculum 5×10^5 CFU/mL", "value": ">64", "unit": "mg/L"}, {"measurement": "MIC Enterococcus faecalis (GC 4554)", "setting": "[1]; inoculum 5×10^5 CFU/mL", "value": ">64", "unit": "mg/L"}, {"measurement": "MIC Enterococcus faecium (GC 4556)", "setting": "[1]; inoculum 5×10^5 CFU/mL", "value": ">64", "unit": "mg/L"}, {"measurement": "MIC Enterococcus faecium (GC 4557)", "setting": "[1]; inoculum 5×10^5 CFU/mL", "value": 8, "unit": "mg/L"}, {"measurement": "MIC Enterococcus avium (GC 4558)", "setting": "[1]; inoculum 5×10^5 CFU/mL", "value": 64, "unit": "mg/L"}, {"measurement": "MIC Enterococcus faecalis (GC 6189)", "setting": "[1]; inoculum 5×10^5 CFU/mL", "value": ">64", "unit": "mg/L"}, {"measurement": "MIC Enterococcus faecalis (ATCC 29212)", "setting": "[1]", "value": ">64", "unit": "mg/L"}, {"measurement": "MIC Enterococcus faecalis (GC 2242)", "setting": "[1]; strain GC 2242", "value": 64, "unit": "mg/L"}, {"measurement": "MIC Enterococcus faecium (GC 2243)", "setting": "[1]", "value": 64, "unit": "mg/L"}, {"measurement": "MIC Enterococcus faecalis (GC 2691)", "setting": "[1]; strain GC 2691", "value": ">64", "unit": "mg/L"}, {"measurement": "MIC Enterococcus faecalis (GC 3059)", "setting": "[1]; strain GC 3059", "value": ">64", "unit": "mg/L"}, {"measurement": "MIC Enterococcus faecalis (GC 4552)", "setting": "[1]", "value": ">64", "unit": "mg/L"}, {"measurement": "MIC Enterococcus faecalis (GC 4553)", "setting": "[1]", "value": ">64", "unit": "mg/L"}, {"measurement": "MIC Enterococcus faecalis (GC 4554)", "setting": "[1]", "value": ">64", "unit": "mg/L"}, {"measurement": "MIC Enterococcus faecium (GC 4556)", "setting": "[1]", "value": ">64", "unit": "mg/L"}, {"measurement": "MIC Enterococcus faecium (GC 4557)", "setting": "[1]", "value": 8, "unit": "mg/L"}, {"measurement": "MIC Enterococcus avium (GC 4558)", "setting": "[1]", "value": 64, "unit": "mg/L"}, {"measurement": "MIC Enterococcus faecalis (GC 6189)", "setting": "[1]", "value": ">64", "unit": "mg/L"}, {"measurement": "MIC Staphylococcus aureus (GC 1131)", "setting": "[2]; inoculum 5×10^5 CFU/mL", "value": 32, "unit": "mg/L"}, {"measurement": "MIC Staphylococcus aureus (ATCC 29213)", "setting": "[2]; strain ATCC 29213", "value": 32, "unit": "mg/L"}, {"measurement": "MIC Staphylococcus aureus (GC 1131)", "setting": "[2]", "value": 32, "unit": "mg/L"}, {"measurement": "MIC Staphylococcus aureus (GC 3051)", "setting": "[2]; strain GC 3051", "value": 16, "unit": "mg/L"}, {"measurement": "MIC Staphylococcus aureus (GC 3053)", "setting": "[2]; strain GC 3053", "value": 32, "unit": "mg/L"}, {"measurement": "MIC Staphylococcus aureus (GC 4541)", "setting": "[2]; strain GC 4541", "value": 16, "unit": "mg/L"}, {"measurement": "MIC Staphylococcus aureus (GC 4542)", "setting": "[2]; strain GC 4542", "value": 32, "unit": "mg/L"}, {"measurement": "MIC Staphylococcus aureus-SMITH (GC 4543)", "setting": "[2]; strain GC 4543", "value": 16, "unit": "mg/L"}, {"measurement": "MIC Staphylococcus aureus (GC 4544)", "setting": "[2]; strain GC 4544", "value": 32, "unit": "mg/L"}, {"measurement": "MIC Staphylococcus aureus (GC 4545)", "setting": "[2]; strain GC 4545", "value": 16, "unit": "mg/L"}, {"measurement": "MIC Staphylococcus haemolyticus (GC 4546)", "setting": "[2]; strain GC 4546", "value": 16, "unit": "mg/L"}, {"measurement": "MIC Coagulase Negative Staphylococcus (GC 4547)", "setting": "[2]; strain GC 4547", "value": 16, "unit": "mg/L"}, {"measurement": "MIC Coagulase Negative Staphylococcus (GC 4548)", "setting": "[2]; strain GC 4548", "value": 8, "unit": "mg/L"}, {"measurement": "MIC Coagulase Negative Staphylococcus (GC 4549)", "setting": "[2]; strain GC 4549", "value": 8, "unit": "mg/L"}, {"measurement": "MIC Coagulase Negative Staphylococcus (GC 4551)", "setting": "[2]; strain GC 4551", "value": 32, "unit": "mg/L"}, {"measurement": "MIC Coagulase Negative Staphylococcus (GC 6257)", "setting": "[2]; strain GC 6257", "value": 4, "unit": "mg/L"}, {"measurement": "MIC Staphylococcus aureus-SMITH (GC 4543)", "setting": "[2]; strain SMITH GC 4543", "value": 16, "unit": "mg/L"}, {"measurement": "MIC Streptococcus agalactiae (GC 4564)", "setting": "[3]; Streptococcus agalactiae (GC 4564)", "value": 16, "unit": "mg/L"}, {"measurement": "MIC Streptococcus pneumoniae (ATCC 6301)", "setting": "[3]; Streptococcus pneumoniae (ATCC 6301)", "value": 4, "unit": "mg/L"}, {"measurement": "MIC Streptococcus pneumoniae (GC 1894)", "setting": "[3]; Streptococcus pneumoniae (GC 1894)", "value": 4, "unit": "mg/L"}, {"measurement": "MIC Streptococcus pneumoniae (GC 4565)", "setting": "[3]; Streptococcus pneumoniae (GC 4565)", "value": 4, "unit": "mg/L"}, {"measurement": "MIC Streptococcus pyogenes (GC 4563)", "setting": "[3]; Streptococcus pyogenes (GC 4563)", "value": 8, "unit": "mg/L"}, {"measurement": "MIC Streptococcus pneumoniae (ATCC 6301)", "setting": "[3]; strain ATCC 6301", "value": 4, "unit": "mg/L"}, {"measurement": "MIC Streptococcus pneumoniae (GC 1894)", "setting": "[3]; strain GC 1894", "value": 4, "unit": "mg/L"}, {"measurement": "MIC Streptococcus pyogenes (GC 4563)", "setting": "[3]; strain GC 4563", "value": 8, "unit": "mg/L"}, {"measurement": "MIC Streptococcus agalactiae (GC 4564)", "setting": "[3]; strain GC 4564", "value": 16, "unit": "mg/L"}, {"measurement": "MIC Streptococcus pneumoniae (GC 4565)", "setting": "[3]; strain GC 4565", "value": 4, "unit": "mg/L"}, {"measurement": "MIC Escherichia coli (ATCC 25922)", "setting": "[4]; strain ATCC 25922, 18 hours at 35° C.", "value": ">64", "unit": "mg/L"}, {"measurement": "MIC Escherichia coli (GC 4559)", "setting": "[4]; strain GC 4559, 18 hours at 35° C.", "value": ">64", "unit": "mg/L"}]}]}
